Assays:
[1] = tested on: LPS-activated tissue-factor (TF) activity in human monocytes; assay: Pro-coagulant activity of tissue factor (one-stage clotting time) in LPS-stimulated human monocytes; type: cell-based; conditions: for time at which inhibition of LPS-mediated TF activity is evident: 0.1 μg/ml LPS, 5 h versus 24 h (FIG. 2); for tissue-factor activity (pro-coagulant activity, one-stage clotting time): 50 μM to 300 μM, then 0.1 μg/ml LPS for 5 h and 24 h (FIG. 2)
Method: FIG. 2—The glycerophosphoinositols inhibit LPS-activated tissue-factor activity in human monocytes. Human monocytes were purified from peripheral blood of healthy donors and incubated at 37° C. for 20 min without or with different concentrations (from 50 μM to 300 μM) GroPIns or GroPIns4P, and for a further 5 h and 24 h in the absence and in presence of 0.1 μg/ml LPS from E. coli. […] Data are means (±SD) of three independent experiments performed with cells from different donors. Asterisks indicate statistically significant differences (*p=0.015; **p<0.005; ***p=0.0003) versus their respective controls. As shown, pro-coagulant activity was not detectable in untreated monocytes, and it was induced in a time-dependent manner by LPS stimulation.
The glycerophosphoinositol, differently from the PLA2IVα inhibitor, inhibits LPS-activated tissue-factor activity in human monocytes. Human monocytes were purified from peripheral blood of two healthy donors (experiment I and II) and pre-incubated at 37° C. for 20 min without (black line) or with 300 μM glycerophosphoinositol (GroPIns, blue line) or 0.5 μM PLA2IVα inhibitor (pyrrophenone, Pf, red line), and for a further 24 h in the absence or presence of increasing concentrations of LPS from E. coli (endotoxin).
The glycerophosphoinositol inhibits in a dose-dependent manner LPS-activated tissue-factor activity in human monocytes. Human monocytes were purified from peripheral blood of three healthy donors (experiments III, IV and V) and pre-incubated at 37° C. for 20 min without or with increasing concentrations of glycerophosphoinositol (GroPIns) and for a further 24 h in the absence or presence of 10 ng/ml of LPS from E. coli (endotoxin). […] The two insets in Exp IV and V show the pro-coagulant activity of tissue factor, assessed in cells stimulated by 10 ng/ml of endotoxin, with (filled bars) or without (dotted bars) 20 min pre-incubation at 37° C., in absence (Control) or in presence of 300 μM GroPIns.
The glycerophosphoinositols inhibit LPS-activated tissue-factor activity in human monocytes.
Human monocytes were obtained from whole blood collected from healthy donors (informed consent was obtained) and anticoagulated with 0.1 vol 3.8% sodium citrate/0.15 mol/l NaCl. The leukocytes were sedimented at 180×g for 15 min at 10° C. The sedimented cells were diluted to the initial volume with citrate-saline and sedimented again. This step was repeated to minimise platelet contamination. The cells were then layered onto Lymphoprep™, and centrifuged at 700×g for 20 min at 20° C. The ring of mononuclear cells was collected and sedimented at 620×g for 7 min at 8° C. The pellet was resuspended in citrate-saline and the cells were washed twice. Monocytes were purified using a discontinuous Percoll™ density gradient; the mononuclear cell preparation was resuspended in RPMI-1640 medium supplemented with 10% heat-inactivated foetal calf serum, and was layered onto a 46% isosmotic Percoll™ solution. After centrifugation at 20° C. for 30 min at 550×g, the cells at the RPMI-1640 medium/Percoll™ interface were collected and sedimented at 620×g. The pellet was resuspended in citrate-saline and the cells were washed twice. The final monocyte preparation was then resuspended in serum-free RPMI-1640 at the concentration required.
The pro-coagulant activity of tissue factor (TF activity) was measured in cell lysates according to one-stage clotting time [as reported in (Evangelista et al., Thromb Haemost. 2005; 94, 568-577)]. One hundred μl of cell lysates were added to 100 μl of 37° C. prewarmed normal human plasma. After 30 s, 100 μl 20 mM CaCl2 were added to the mixture and the clotting time was determined using a KC4A Amellung Coagulometer (Mascia Brunelli, Milan, Italy). The data were then converted in arbitrary units by interpolation with a standard curve generated with serial dilutions of human recombinant thromboplastin (Hemoliance, Instrumentation Laboratory).

[2] = tested on: LPS-mediated gene transcription of IL-1β; assay: Real-time RT-PCR of IL-1β mRNA in LPS-stimulated monocytes; type: cell-based, human; conditions: 300 μM, 0.1 μg/ml LPS for 1.5 h or 24 h
Method: (§1) FIG. 4—The glycerophosphoinositols inhibit LPS-mediated gene transcription of TNFα, IL-1β and COX-2. Human monocytes were purified from peripheral blood and incubated at 37° C. for 20 min without or with 300 μM GroPIns or GroPIns4P, and for an additional 1.5 h or 24 h in the absence and presence of 0.1 μg/ml LPS from E. coli. At each time point, RNA was extracted and converted to cDNA for real-time PCR analysis of TNFα, IL-1β and COX-2. Each sample was measured in triplicate and the data were calculated using the delta-delta method (2-DDCT). Transcription of the house-keeping gene GAPDH was used to normalise the data. Measurements of mRNA levels were expressed as fold-increase over the respective control (unstimulated) cells, and are means (±SD) of triplicates from one representative experiment of 4 experiments performed with cells from different donors. Asterisks indicate statistically significant differences (*p<0.0485; **p<0.0092).
(§2) One μg total RNA (extracted through thiocyanate/caesium chloride method) was converted to cDNA using Moloney murine leukaemia virus reverse transcriptase (Applied Biosystems, Italy). […] Each sample was measured in triplicate and the data were analysed with the SDS 2.0 software (Applied Biosystems, Italy) by the delta-delta method (2-DDCT) for comparing relative expression results. […]

[3] = tested on: LPS-mediated gene transcription of TNFα; assay: Real-time RT-PCR of TNFα mRNA in LPS-stimulated monocytes; type: cell-based, human; conditions: 300 μM, 0.1 μg/ml LPS for 1.5 h or 24 h
Method: as §1, §2

[4] = 300 μM, endotoxin 10 ng/ml for 24 h (FIG. 12)

Structure (SMILES)	time at which inhibition of LPS-mediated TF activity is evident [1]	tissue-factor activity (pro-coagulant activity, one-stage clotting time) ([1]; 20 min pre-incubation)	TF activity [1, 4]	efficacy in reducing TF activity compared with GroPIns [1, 4]	effect on LPS-induced IL-1β mRNA expression [2]	effect on LPS-induced TNFα mRNA expression [3]	TF activity ([1]; 300 μM, 20 min pre-incubation, increasing concentrations of endotoxin for 24 h (FIG. 10))	TF activity ([1]; increasing concentrations of compound, endotoxin 10 ng/ml for 24 h (FIG. 11))
O=P(O)(O)OC1[C@@H](O)[C@H](O)C(OP(=O)(O)OCC(O)CO)[C@@H](O)[C@H]1O (stereo partly shown) [GroPIns4P, glycerophosphoinositol 4-phosphate]	already effective at shorter times (5 h)	dose-dependent reduction in tissue-factor activity	reduce TF activity	higher efficacy than GroPIns	inhibited the effects of LPS on expression of all of the genes analysed	inhibited the effects of LPS on expression of all of the genes analysed	–	–
O=P(O)(OCC(O)CO)OC1C(O)C(O)C(O)C(O)C1O (stereo not shown) [GroPIns, glycerophosphoinositol]	mainly evident at long times (24 h)	dose-dependent reduction in tissue-factor activity	reduce TF activity	–	inhibited the effects of LPS on expression of all of the genes analysed	inhibited the effects of LPS on expression of all of the genes analysed	reduces TF activity	dose-dependently reduces TF activity

Source: patent US9351983B2, “Use of glycerophosphoinositols for the treatment of septic shock” (CONSIGLIO NAZIONALE DELLE RICERCHE, priority 2012, dated 2016)
